The supplement of paper PMC10307832

Key:
Assay in all cases: relative viability (nuclei count vs DMSO), 5 days (fraction); higher = more cells survive
NCI-H441 = test system: NCI-H441
How it was run: (§1)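 Five library-drug doses in √10 steps were combined with a fixed anchor-drug dose, or a single drug was given alone, by pin tool to lung cancer cell lines in 1536-well plates the day after seeding. Nuclei were stained and counted after 5 days. Relative viability is the nuclei count in treated wells over that in vehicle wells, taken as the median of duplicate plates.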

PC-3 [JPC-3] = test system: PC-3 [JPC-3]
How it was run: as §1

LK-2 = test system: LK-2
How it was run: as §1

EKVX = test system: EKVX
How it was run: as §1

NCI-H23 = test system: NCI-H23
How it was run: as §1

NCI-H596 = test system: NCI-H596
How it was run: as §1

NCI-H1975 = test system: NCI-H1975
How it was run: as §1

ChaGo-K-1 = test system: ChaGo-K-1
How it was run: as §1

COR-L 105 = test system: COR-L 105
How it was run: as §1

HCC-366 = test system: HCC-366
How it was run: as §1

LOU-NH91 = test system: LOU-NH91
How it was run: as §1

NCI-H2170 = test system: NCI-H2170
How it was run: as §1

A-427 = test system: A-427
How it was run: as §1

EMC-BAC-2 = test system: EMC-BAC-2
How it was run: as §1

NCI-H1734 = test system: NCI-H1734
How it was run: as §1

NCI-H520 = test system: NCI-H520
How it was run: as §1

NCI-H1755 = test system: NCI-H1755
How it was run: as §1

NCI-H1666 = test system: NCI-H1666
How it was run: as §1

SK-MES-1 = test system: SK-MES-1
How it was run: as §1

NCI-H1563 = test system: NCI-H1563
How it was run: as §1

H3255 = test system: H3255
How it was run: as §1

COc1nc(C)cnc1NS(=O)(=O)c1cccnc1-c1ccc(-c2nnco2)cc1 [Zibotentan] + CS(=O)(=O)N1CCN(Cc2cc3nc(-c4cccc5[nH]ncc45)nc(N4CCOCC4)c3s2)CC1 [Pictilisib] (partner 1 µM)
relative viability (NCI-H441; first compound 0.08 µM): 0.518
relative viability (NCI-H441; first compound 0.253 µM): 0.39
relative viability (NCI-H441; first compound 0.8 µM): 0.545
relative viability (NCI-H441; first compound 2.53 µM): 0.632
relative viability (PC-3 [JPC-3]; first compound 0.08 µM): 0.756
relative viability (PC-3 [JPC-3]; first compound 0.253 µM): 0.717
relative viability (PC-3 [JPC-3]; first compound 0.8 µM): 0.647
relative viability (PC-3 [JPC-3]; first compound 2.53 µM): 0.781
relative viability (LK-2; first compound 0.08 µM): 0.542
relative viability (LK-2; first compound 0.253 µM): 0.471
relative viability (LK-2; first compound 0.8 µM): 0.55
relative viability (LK-2; first compound 2.53 µM): 0.603
relative viability (EKVX; first compound 0.08 µM): 0.465
relative viability (EKVX; first compound 0.253 µM): 0.451
relative viability (EKVX; first compound 0.8 µM): 0.439
relative viability (EKVX; first compound 2.53 µM): 0.453
relative viability (NCI-H23; first compound 0.08 µM): 0.403
relative viability (NCI-H23; first compound 0.253 µM): 0.462
relative viability (NCI-H23; first compound 0.8 µM): 0.556
relative viability (NCI-H23; first compound 2.53 µM): 0.58
relative viability (NCI-H596; first compound 0.08 µM): 0.446
relative viability (NCI-H596; first compound 0.253 µM): 0.417
relative viability (NCI-H596; first compound 0.8 µM): 0.385
relative viability (NCI-H596; first compound 2.53 µM): 0.428
relative viability (NCI-H1975; first compound 0.08 µM): 0.311
relative viability (NCI-H1975; first compound 0.253 µM): 0.262
relative viability (NCI-H1975; first compound 0.8 µM): 0.293
relative viability (NCI-H1975; first compound 2.53 µM): 0.299
relative viability (ChaGo-K-1; first compound 0.08 µM): 0.653
relative viability (ChaGo-K-1; first compound 0.8 µM): 0.426
relative viability (ChaGo-K-1; first compound 2.53 µM): 0.691
relative viability (COR-L 105; first compound 0.08 µM): 0.523
relative viability (COR-L 105; first compound 0.253 µM): 0.357
relative viability (COR-L 105; first compound 0.8 µM): 0.477
relative viability (COR-L 105; first compound 2.53 µM): 0.502
relative viability (HCC-366; first compound 0.08 µM): 0.145
relative viability (HCC-366; first compound 0.253 µM): 0.156
relative viability (HCC-366; first compound 0.8 µM): 0.141
relative viability (HCC-366; first compound 2.53 µM): 0.148
relative viability (LOU-NH91; first compound 0.08 µM): 0.497
relative viability (LOU-NH91; first compound 0.253 µM): 0.468
relative viability (LOU-NH91; first compound 0.8 µM): 0.515
relative viability (LOU-NH91; first compound 2.53 µM): 0.54
relative viability (NCI-H2170; first compound 0.08 µM): 0.282
relative viability (NCI-H2170; first compound 0.253 µM): 0.295
relative viability (NCI-H2170; first compound 0.8 µM): 0.316
relative viability (NCI-H2170; first compound 2.53 µM): 0.368
relative viability (A-427; first compound 0.08 µM): 0.909
relative viability (A-427; first compound 0.253 µM): 0.733
relative viability (A-427; first compound 0.8 µM): 0.68
relative viability (A-427; first compound 2.53 µM): 0.751
relative viability (EMC-BAC-2; first compound 0.08 µM): 0.568
relative viability (EMC-BAC-2; first compound 0.253 µM): 0.529
relative viability (EMC-BAC-2; first compound 0.8 µM): 0.56
relative viability (EMC-BAC-2; first compound 2.53 µM): 0.56
relative viability (NCI-H1734; first compound 0.08 µM): 0.516
relative viability (NCI-H1734; first compound 0.253 µM): 0.442
relative viability (NCI-H1734; first compound 0.8 µM): 0.461
relative viability (NCI-H1734; first compound 2.53 µM): 0.43
relative viability (NCI-H520; first compound 0.08 µM): 0.336
relative viability (NCI-H520; first compound 0.253 µM): 0.233
relative viability (NCI-H520; first compound 0.8 µM): 0.311
relative viability (NCI-H520; first compound 2.53 µM): 0.316
relative viability (NCI-H1755; first compound 0.08 µM): 0.444
relative viability (NCI-H1755; first compound 0.253 µM): 0.461
relative viability (NCI-H1755; first compound 0.8 µM): 0.382
relative viability (NCI-H1755; first compound 2.53 µM): 0.47
relative viability (NCI-H1666; first compound 0.08 µM): 0.553
relative viability (NCI-H1666; first compound 0.253 µM): 0.361
relative viability (NCI-H1666; first compound 0.8 µM): 0.467
relative viability (NCI-H1666; first compound 2.53 µM): 0.429
relative viability (SK-MES-1; first compound 0.08 µM): 0.344
relative viability (SK-MES-1; first compound 0.253 µM): 0.356
relative viability (SK-MES-1; first compound 0.8 µM): 0.388
relative viability (SK-MES-1; first compound 2.53 µM): 0.428
relative viability (NCI-H1563; first compound 0.08 µM): 0.635
relative viability (NCI-H1563; first compound 0.253 µM): 0.594
relative viability (NCI-H1563; first compound 0.8 µM): 0.652
relative viability (NCI-H1563; first compound 2.53 µM): 0.639
relative viability (H3255; first compound 0.08 µM): 0.467
relative viability (H3255; first compound 0.253 µM): 0.485
relative viability (H3255; first compound 0.8 µM): 0.467
relative viability (H3255; first compound 2.53 µM): 0.549
